In ChEMBL document CHEMBL5465560, “Selectivity Literature for EUbOPEN Chemogenomic Library” (2024):
Where a chain is given by its changes, count along the chain named.

Assays:
[1] = tested on: T1, Receptor-type tyrosine-protein kinase FLT3 (Homo sapiens), P36888 [D835H]; assay: (§1) Selectivity interaction (KinomeScan (DiscoverX)) EUB0000695a FLT3; conditions: at 100 nM
T1 sequence (whole entry): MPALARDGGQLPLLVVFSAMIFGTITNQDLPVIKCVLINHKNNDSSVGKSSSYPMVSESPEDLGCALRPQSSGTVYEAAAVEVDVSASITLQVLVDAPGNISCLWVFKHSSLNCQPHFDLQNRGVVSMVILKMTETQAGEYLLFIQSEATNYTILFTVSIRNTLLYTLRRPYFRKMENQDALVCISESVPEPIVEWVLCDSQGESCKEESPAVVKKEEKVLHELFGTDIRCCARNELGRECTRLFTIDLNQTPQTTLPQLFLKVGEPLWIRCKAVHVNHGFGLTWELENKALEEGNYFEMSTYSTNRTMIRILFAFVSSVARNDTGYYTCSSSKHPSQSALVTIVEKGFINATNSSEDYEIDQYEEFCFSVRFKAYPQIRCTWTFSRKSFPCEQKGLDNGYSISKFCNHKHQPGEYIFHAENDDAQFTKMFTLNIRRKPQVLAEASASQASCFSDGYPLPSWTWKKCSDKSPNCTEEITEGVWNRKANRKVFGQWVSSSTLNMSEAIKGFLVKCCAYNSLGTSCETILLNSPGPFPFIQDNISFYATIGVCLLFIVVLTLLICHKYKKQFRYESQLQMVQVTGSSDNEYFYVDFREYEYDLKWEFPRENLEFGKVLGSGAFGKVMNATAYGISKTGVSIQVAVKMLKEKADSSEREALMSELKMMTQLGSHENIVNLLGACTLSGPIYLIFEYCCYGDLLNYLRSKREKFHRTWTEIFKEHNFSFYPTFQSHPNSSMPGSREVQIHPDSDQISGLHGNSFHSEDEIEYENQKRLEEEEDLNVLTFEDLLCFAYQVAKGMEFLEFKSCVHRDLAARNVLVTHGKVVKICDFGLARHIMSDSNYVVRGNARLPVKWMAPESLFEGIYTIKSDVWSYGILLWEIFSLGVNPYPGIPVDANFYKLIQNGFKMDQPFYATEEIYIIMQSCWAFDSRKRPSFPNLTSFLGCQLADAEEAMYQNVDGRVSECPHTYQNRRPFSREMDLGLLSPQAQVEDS

[2] = tested on: T2, Receptor-type tyrosine-protein kinase FLT3 (Homo sapiens), P36888 [K663Q]; assay: as §1; conditions: at 100 nM
T2 sequence (whole entry): T1 sequence (whole entry) with K663Q, H835D

[3] = tested on: T3, Receptor-type tyrosine-protein kinase FLT3 (Homo sapiens), P36888 [R834Q]; assay: as §1; conditions: at 100 nM
T3 sequence (whole entry): T1 sequence (whole entry) with R834Q, H835D

[4] = molecular target: Tyrosine-protein kinase JAK1 (Homo sapiens, UniProt P23458); assay: Selectivity interaction (KinomeScan (DiscoverX)) EUB0000045b JAK1
Tyrosine-protein kinase JAK1, sequence (P23458 whole entry): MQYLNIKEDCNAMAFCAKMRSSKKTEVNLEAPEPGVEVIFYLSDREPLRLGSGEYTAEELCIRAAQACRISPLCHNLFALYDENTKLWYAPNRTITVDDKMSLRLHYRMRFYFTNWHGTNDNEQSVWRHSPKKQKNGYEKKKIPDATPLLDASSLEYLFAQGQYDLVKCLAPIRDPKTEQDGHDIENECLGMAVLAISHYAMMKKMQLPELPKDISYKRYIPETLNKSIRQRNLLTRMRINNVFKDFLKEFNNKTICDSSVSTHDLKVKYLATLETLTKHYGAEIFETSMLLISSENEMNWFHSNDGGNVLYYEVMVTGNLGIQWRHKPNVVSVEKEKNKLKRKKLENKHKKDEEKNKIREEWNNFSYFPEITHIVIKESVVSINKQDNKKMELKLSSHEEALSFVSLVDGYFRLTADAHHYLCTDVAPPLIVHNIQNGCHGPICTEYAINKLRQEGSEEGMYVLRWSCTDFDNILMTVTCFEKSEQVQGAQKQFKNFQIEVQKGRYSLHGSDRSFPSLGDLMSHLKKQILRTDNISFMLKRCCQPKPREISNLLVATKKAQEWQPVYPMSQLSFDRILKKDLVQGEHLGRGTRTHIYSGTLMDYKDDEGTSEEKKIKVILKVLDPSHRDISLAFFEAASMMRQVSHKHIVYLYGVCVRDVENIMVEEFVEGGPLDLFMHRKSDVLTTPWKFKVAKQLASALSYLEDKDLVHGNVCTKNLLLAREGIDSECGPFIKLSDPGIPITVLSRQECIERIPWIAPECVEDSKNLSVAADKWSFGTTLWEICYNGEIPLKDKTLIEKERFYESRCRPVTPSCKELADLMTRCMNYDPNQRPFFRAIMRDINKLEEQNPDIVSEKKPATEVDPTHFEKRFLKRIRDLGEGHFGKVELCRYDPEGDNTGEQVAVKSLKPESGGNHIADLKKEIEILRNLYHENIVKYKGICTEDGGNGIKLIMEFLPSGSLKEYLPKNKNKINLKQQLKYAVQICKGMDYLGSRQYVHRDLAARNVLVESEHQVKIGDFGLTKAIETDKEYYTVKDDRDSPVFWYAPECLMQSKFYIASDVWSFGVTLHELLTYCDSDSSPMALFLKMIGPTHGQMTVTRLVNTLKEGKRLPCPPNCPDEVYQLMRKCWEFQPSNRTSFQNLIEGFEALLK

## Cc1cc(F)c(C(=O)Nc2cccc(-c3nncn3C(C)C)n2)cc1-n1cnc(C2CC2)c1
[1]
  % of control: 100%
[2]
  % of control: 97%
[3]
  % of control: 100%

## C=CC(=O)Nc1cc(-n2c(=O)ccc3cnc4ccc(-c5ccc(NS(C)(=O)=O)cc5)cc4c32)ccc1C
[4]; at 1 µM
  % of control: 87%
[4]; at 10 µM
  % of control: 76%
